Assay results taken from PubChem BioAssay (NCI).
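Growth conditions: 96-well plates. Treatment: test compound, 48 hours, 5 concentrations. Analysis: linear interpolation between bracketing concentrations; unreached endpoints set to highest concentration. TGI denotes the concentration required for complete inhibition of growth.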

How the values were obtained:
Experiment in all cases: NCI anticancer screen, dose series, 48 h
DLD-1 colon = system: DLD-1 colon
OVCAR-8 ovarian = system: OVCAR-8 ovarian
MOLT-4 leukemia = system: MOLT-4 leukemia
SNB-19 CNS = system: SNB-19 CNS
EKVX NSCLC = system: EKVX NSCLC
NCI-H522 lung = system: NCI-H522 lung
RXF 393 renal = system: RXF 393 renal
RPMI-8226 leukemia = system: RPMI-8226 leukemia
SN12C renal = system: SN12C renal
KM12 colon = system: KM12 colon
NCI-H460 lung = system: NCI-H460 lung
K-562 leukemia = system: K-562 leukemia
TK-10 renal = system: TK-10 renal
MALME-3M melanoma = system: MALME-3M melanoma
OVCAR-5 ovarian = system: OVCAR-5 ovarian
RXF-631 renal = system: RXF-631 renal
XF 498 CNS = system: XF 498 CNS
KM20L2 colon = system: KM20L2 colon
SF-295 CNS = system: SF-295 CNS
HL-60(TB) leukemia = system: HL-60(TB) leukemia
IGROV1 ovarian = system: IGROV1 ovarian
HT29 colon = system: HT29 colon
CAKI-1 renal = system: CAKI-1 renal
NCI-H23 lung = system: NCI-H23 lung
SNB-75 CNS = system: SNB-75 CNS
UO-31 renal = system: UO-31 renal
LXFL 529 NSCLC = system: LXFL 529 NSCLC
ACHN renal = system: ACHN renal
U251 CNS = system: U251 CNS
HCT-15 colon = system: HCT-15 colon
UACC-62 melanoma = system: UACC-62 melanoma
OVCAR-4 ovarian = system: OVCAR-4 ovarian
M14 melanoma = system: M14 melanoma
SK-MEL-5 melanoma = system: SK-MEL-5 melanoma
786-0 renal = system: 786-0 renal
SK-MEL-2 melanoma = system: SK-MEL-2 melanoma
SK-OV-3 ovarian = system: SK-OV-3 ovarian
A498 renal = system: A498 renal
COLO 205 colon = system: COLO 205 colon
HOP-92 NSCLC = system: HOP-92 NSCLC
HOP-18 NSCLC = system: HOP-18 NSCLC
SF-539 CNS = system: SF-539 CNS
CCRF-CEM leukemia = system: CCRF-CEM leukemia
OVCAR-3 ovarian = system: OVCAR-3 ovarian
LOX IMVI melanoma = system: LOX IMVI melanoma
M19-MEL melanoma = system: M19-MEL melanoma
SW-620 colon = system: SW-620 colon
DMS 273 small cell lung = system: DMS 273 small cell lung
SF-268 CNS = system: SF-268 CNS
A549 NSCLC = system: A549 NSCLC
SK-MEL-28 melanoma = system: SK-MEL-28 melanoma
HOP-62 NSCLC = system: HOP-62 NSCLC
SR leukemia = system: SR leukemia
DMS 114 small cell lung = system: DMS 114 small cell lung
UACC-257 melanoma = system: UACC-257 melanoma
HCC-2998 colon = system: HCC-2998 colon
SNB-78 CNS = system: SNB-78 CNS
HCT-116 colon = system: HCT-116 colon
NCI-H226 lung = system: NCI-H226 lung

Measured: TGI

CCCCCCCCSC(=O)NCCCC
96.8 µM: HCT-15 colon
53.9 µM: HOP-92 NSCLC
68.5 µM: MALME-3M melanoma
80.4 µM: NCI-H522 lung
66.6 µM: HT29 colon
84.7 µM: SNB-75 CNS
62.5 µM: KM20L2 colon
75.4 µM: EKVX NSCLC
51.6 µM: UO-31 renal
69.3 µM: RXF 393 renal
47.2 µM: XF 498 CNS
57.9 µM: RPMI-8226 leukemia
40.2 µM: LOX IMVI melanoma
45.6 µM: SK-MEL-2 melanoma
79 µM: M14 melanoma
41.3 µM: HL-60(TB) leukemia
46.6 µM: SK-MEL-5 melanoma
87 µM: MOLT-4 leukemia
88.7 µM: SK-MEL-28 melanoma
not listed: HOP-62 NSCLC | SR leukemia | DMS 114 small cell lung | UACC-257 melanoma | HCC-2998 colon | SNB-78 CNS | HCT-116 colon | NCI-H226 lung
> 100 µM: all other assays above

C[N+]1=C(c2cccnc2/C=N/O)OCC1(C)C
not listed: RPMI-8226 leukemia | RXF-631 renal
> 100 µM: all other assays above

O=C(NN1C(=O)C(Cl)C1c1cccc(O)c1)c1ccccc1O (stereo not drawn)
not listed: EKVX NSCLC | RPMI-8226 leukemia | OVCAR-5 ovarian | RXF-631 renal | KM20L2 colon | CAKI-1 renal | 786-0 renal | COLO 205 colon | HOP-92 NSCLC | SW-620 colon | HOP-62 NSCLC | SR leukemia
> 100 µM: all other assays above

O=C(CCC(=O)Nc1ccccc1C(F)(F)F)N/N=C1\C(=N\NC(=O)CCC(=O)Nc2ccccc2C(F)(F)F)C(c2ccc3c(c2)OCO3)Oc2ccccc21 (stereo not drawn)
43.2 µM: SNB-75 CNS
98 µM: CAKI-1 renal
> 85.4 µM: OVCAR-4 ovarian
54.6 µM: SF-539 CNS
> 87.6 µM: XF 498 CNS
66.3 µM: CCRF-CEM leukemia
> 22.3 µM: DMS 114 small cell lung
> 87.1 µM: HOP-92 NSCLC
> 71.7 µM: RXF 393 renal
> 82.5 µM: SK-OV-3 ovarian
68.5 µM: U251 CNS
56.3 µM: HOP-62 NSCLC
18.9 µM: SF-268 CNS
> 72.8 µM: NCI-H522 lung
not listed: LXFL 529 NSCLC
> 100 µM: all other assays above
